Target: NavSp pore (Ruegeria pomeroyi, UniProt Q6TMY8)
Settings: drug added to both sides of bilayer; 0.5 M NaCl, 10 mM HEPES, pH 7.4; room temperature; POPE:POPG 1:1

Chain of NavSp pore (Q6TMY8 114-258 limits assumed): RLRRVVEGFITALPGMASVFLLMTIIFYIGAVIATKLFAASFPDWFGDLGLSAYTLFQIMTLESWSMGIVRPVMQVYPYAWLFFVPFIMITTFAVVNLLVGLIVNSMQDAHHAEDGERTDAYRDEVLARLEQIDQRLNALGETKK

Which IC50 does the source give for `COC(=O)C1=C(C)NC(C)=C(C(=O)OC)C1c1ccccc1[N+](=O)[O-]` [nifedipine] here?
The IC50 was 2950 nM.
